In experiment [1] the test system is human peripheral blood mononuclear cells (PBMC). Put plainly: Human peripheral blood mononuclear cell assay (LPS stimulated TNFa production). It counts as cell-based. Particulars: read-out: pIC50 potency, inhibition of TNF production (converted). The protocol: The cellular potency of compounds was assessed in human peripheral blood mononuclear cells (PBMC) by measuring their impact on lipopolysaccharide (LPS) stimulated TNFa production. PBMCs were prepared from heparinised human blood from normal volunteers by centrifugation on hystopaque in Accuspin tubes at 800 g for 20 minutes. The cells were collected from the interface, washed by centrifugation (1300 g, 10 minutes) and resuspended in assay buffer (RPMI1640 containing 10% foetal calf serum, 1% L-glutamine and 1% penicillin/streptomycin) at 1×10^6 cells/ml. […] The supernatant was removed and the concentrations of TNF determined by electrochemiluminescence assay using the MSD technology.
(§1) 20 μl supernatant from PBMC plates or 40 μl from whole blood plates was transferred using the Biomek FX to a 96 well High-Bind MSD assay plate precoated with anti-hTNF alpha capture antibody and containing 25 μl of MSD human serum cytokine assay diluent. […] The plates were shaken at room temperature for a further 1 hour before washing again and adding 150 μl of MSD Read Buffer T (2×). Plates were then read on the MSD Sector 6000 plate reader. For the PBMC assay, supernatant addition to the MSD plates was followed immediately by 20 μl of MSD detection antibody, the plates were then sealed and shaken for 2 hours before addition of 90 μl of MSD Read Buffer P (2.5×). Plates were read on the MSD Sector 6000. […]

For the next experiment, the system named is human whole blood. Put plainly: Human whole blood assay (LPS stimulated TNFα). The experiment is classed as cell-based. To be noted: read-out: pIC50 potency, inhibition of TNF production (converted). The protocol: Heparinised blood drawn from normal volunteers was dispensed (100 μl) into microtitre plate wells containing 1.0 μl of an appropriately diluted compound solution in DMSO. After 1 hr incubation at 37° C., 5% CO2, 25 μl LPS solution (S. typhosa) in RPMI 1640 (containing 1% L-glutamine and 1% Penicillin/streptomycin) was added (50 ng/ml final). The samples were incubated at 37° C., 5% CO2 for 20 hours, 50 μls physiological saline (0.138% NaCl) was added and diluted plasma was collected using a Biomek FX liquid handling robot after centrifugation at 1300 g for 10 min. Plasma TNFα content was determined by electrochemiluminescence assay using the Mesoscale (MSD) technology.
as §1

A further experiment relates to A549 SPAP cells. The experiment is described as follows: NFkB reporter assay. Particulars: Homo sapiens, TNF stimulated, read-out: pIC50 potency (converted). The experiment is classed as cell-based. The protocol: A 70% confluent T225 flask of A549 SPAP cells was harvested by centrifugation for 5 min at 200 g, resuspended in assay buffer (DMEM supplemented with 10% FCS 2×HI, 2 mM L-Glutamine, 1% Pen/Strep and Non essential amino acids) and diluted to 0.16×10^6/ml. 60 μl of cell solution was dispensed to each well of clear Nunc 384-well plates, containing 0.5 μl compound in neat DMSO at 140× the required final assay concentration. Plates were incubated for 1h at 37° C., 95% humidity, 5% CO2 before […] of TNF solution in assay buffer was added to give a final concentration of 3.2 ng/ml and then returned to the cell incubator for 15 h. Plates were equilibrated to room temperature for 1 h prior to the addition of 25 μl of pNPP buffer (1 M Diethanolamine pH 9.8, 0.5 mM MgCl2, 0.28M NaCl, 2 mg/ml pNPP) to each well of assay plates. The plates were covered to protect the reagents from light, and then incubated at room temperature for approximately 1 hour before reading them on an Ascent using a 405 nm single filter.
All data was normalized to the mean of 16 high and 16 low control wells on each plate. A four parameter curve fit of the following form was then applied

Another experiment concerns LPS induced neutrophilia. The experiment is described as follows: Inhaled LPS induced neutrophilia in the male CD rat. It counts as in vivo. To be noted: dose of 300 ug/kg i.t. The protocol: Male CD rats (150-250 g) were anaesthetised with isoflurane (5%, 2 L/min O2, 1 L/min […]) and positioned on their back on a dosing table at a 35 degree angle, with a metal rod placed under their incisors to keep them in place. A light was angled against the outside of the throat to highlight the trachea. The mouth was opened to visualise the upper opening of the airway and a portex cannula was introduced into the trachea via a blunt dosing needle. 200 ul of compound formulation was then injected into the airways. After dosing, animals were placed in a supine position during recovery from anaesthesia.
Approximately thirty minutes following dosing of compound or vehicle, the rats were placed into a cloud chamber and exposed to an aerosol of lipopolysaccharide, generated from a 150 ug/ml solution for 15 min.
Four hours following LPS challenge the animals were culled with an overdose of sodium pentobarbitone given intraperitoneally. The trachea was exposed and a small incision made, into which a tube was inserted towards the lungs. The lungs were then washed with 3 times with 5 mls heparinised (10 U/ml) PBS.
The bronchoalveolar lavage fluid (BALF) samples were centrifuged at 1300 rpm for 7 minutes. […] The total cells were also counted from the resuspension using a Sysmex counter. From these two counts, the total numbers of neutrophils in the BALF were determined.

Molecules are shown by their SMILES.

Turning to `COCCS(=O)(=O)N1CCC(c2c[nH]c3c(C(N)=O)cc(-c4ccc5c(c4)CN(C(C)C)C5)cc23)CC1` [Compound of formula (I), 5-[2-(1-methylethyl)-2,3-dihydro-1H-isoindol-5-yl]-3-(1-{[2-(methyloxy)ethyl]sulfonyl}-4-piperidinyl)-1H-indole-7-carboxamide], the IC50 in experiment [1] was < 31.6 nM; with human whole blood, < 316 nM; in the experiment with A549 SPAP cells it was < 31.6 nM. In addition, the “inhibition of LPS induced neutrophilia” value in the experiment with LPS induced neutrophilia is “greater than 75%”.
